According to EP4610269A1, “UROKINASE PLASMINOGEN ACTIVATOR SURFACE RECEPTOR (UPAR) LIGANDS FOR DIAGNOSTIC OR THERAPEUTIC USE” (3B Pharmaceuticals GmbH, priority 2024, dated 2025):
*1 amine or outer side, *2 acyl side, *3 side chain or, on linkers, in order; H or OH if unused. Where a SMILES comes first, the peptide text is derived from it. Bridges are numbered along the chain shown (N, C = ends). [ ]: non-standard residue; d: D form. The star is where a group is joined. Acetyl(4-DOTA-piperazinyl) = O=C(O)CN1CCN(CC(=O)O)CCN(CC(=O)N2CCN(CC(=O)*)CC2)CCN(CC(=O)O)CC1; DOTA = O=C(O)CN1CCN(CC(=O)O)CCN(CC(=O)*)CCN(CC(=O)O)CC1; Phe(4-SO3H) = N[C@@H](Cc1ccc(S(=O)(=O)O)cc1)C(=O)O; Pro(trans-4-F) = O=C(O)[C@@H]1C[C@@H](F)CN1; Phe(4-Cl) = N[C@@H](Cc1ccc(Cl)cc1)C(=O)O; Pro(cis-4-F) = O=C(O)[C@@H]1C[C@H](F)CN1; Dopa = N[C@@H](Cc1ccc(O)c(O)c1)C(=O)O; Cyclopentanecarbonyl = O=C(C1CCCC1)*; Hyp = O=C(O)[C@@H]1C[C@@H](O)CN1; 3Pal = N[C@@H](Cc1cccnc1)C(=O)O; Pentanoyl(4-Me) = CC(C)CCC(=O)*; Cit = NC(=O)NCCC[C@H](N)C(=O)O; Butoxycarbonyl = CCCCOC(=O)*; Phg = N[C@H](C(=O)O)c1ccccc1; Tle = CC(C)(C)[C@H](N)C(=O)O; hCys = N[C@@H](CCS)C(=O)O; Nle = CCCC[C@H](N)C(=O)O; dNMeA = CN[C@H](C)C(=O)O; Nva = CCC[C@H](N)C(=O)O; Hexanoyl = CCCCCC(=O)*; Pentanoyl = CCCCC(=O)*; CO = O=C([*:1])[*:2]; X7 = CCCOCC(=O)*; NHPr = CCCN*

Columns and labels:
[1] = biological target: T1, uPAR-expressing HEC-265 human endometrial adenocarcinoma cells (Homo sapiens, UniProt Q03405); experiment: Competitive FACS binding assay; details: pIC50 category of FACS binding
T1 construct: Cell surface uPAR-expressing HEC-265 human endometrial adenocarcinoma cells; host or cells: HEC-265
T1 sequence (Q03405 23-335): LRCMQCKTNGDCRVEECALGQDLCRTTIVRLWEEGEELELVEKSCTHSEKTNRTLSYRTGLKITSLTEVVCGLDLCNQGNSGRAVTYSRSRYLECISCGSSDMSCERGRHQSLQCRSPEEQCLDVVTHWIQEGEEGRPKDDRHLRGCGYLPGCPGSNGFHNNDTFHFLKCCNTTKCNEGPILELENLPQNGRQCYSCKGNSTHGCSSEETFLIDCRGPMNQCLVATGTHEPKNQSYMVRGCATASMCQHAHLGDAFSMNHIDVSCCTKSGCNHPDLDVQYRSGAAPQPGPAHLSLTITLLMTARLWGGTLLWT
Summary of the method: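 Competitive displacement of a 10 nM biotinylated peptide from HEC-265 cells (1 h, 4 °C, PBS/1% BSA), detected via APC-streptavidin by flow cytometry. pIC50 from four-parameter logistic fit of median fluorescence versus concentration.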

[2] = biological target: T2, human uPAR (uPAR-Fc) (Homo sapiens, UniProt Q03405); experiment: Surface plasmon resonance (SPR) assay, single cycle kinetics; assay type: binding; details: pKD category for uPAR SPR activity assay; uPAR-Fc on Protein A-Chip, 25°C; read-out: pKD CAT (converted)
T2 construct: comprising amino acids Leu23-Arg303 according to UniProt entry Q03405.1; purchased R&D Systems 10378-UK-100
T2 sequence (Q03405 23-303): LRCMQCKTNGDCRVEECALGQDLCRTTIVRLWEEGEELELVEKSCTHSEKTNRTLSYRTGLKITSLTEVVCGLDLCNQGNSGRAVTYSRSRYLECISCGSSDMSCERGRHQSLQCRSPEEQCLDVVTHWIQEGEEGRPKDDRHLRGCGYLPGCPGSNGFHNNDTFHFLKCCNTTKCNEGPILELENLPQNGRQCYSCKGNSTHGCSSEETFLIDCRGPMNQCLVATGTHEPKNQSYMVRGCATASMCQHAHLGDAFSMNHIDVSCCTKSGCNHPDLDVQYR
Summary of the method: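 uPAR-Fc (Leu23-Arg303 extracellular domains, human IgG1 Fc) captured on Protein A chip to ~2000 RU; single-cycle kinetics at 25°C in HEPES running buffer pH 7.4 with 0.1% DMSO. KD from double-referenced sensorgrams fitted to 1:1 Langmuir model, reported as pKD.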

Compound	IC50 [1] [nM]	Kd [2] [nM]
CCCC[C@@H]1NC(=O)[C@H](CCCNC(=N)N)NC(=O)[C@@H](NC(=O)[C@H](CC(C)C)NC(=O)[C@H](CC(=O)O)NC(C)=O)CSSC[C@@H](C(N)=O)NC(=O)[C@H](CC(C)C)NC(=O)[C@H]([C@@H](C)CC)NC(=O)[C@H](C)NC(=O)[C@@H]2CCCN2C(=O)[C@H](Cc2ccccc2)NC(=O)[C@@H](Cc2ccc(O)cc2)NC1=O [UPAR-198, Ac-Asp-Leu-[Cys-Arg-Nle-tyr-Phe-Pro-Ala-Ile-Leu-Cys]-NH2] (Ac-DLCR[Nle][dY]FPAILC-NH2; disulfide 3-12)	≥ 126	> 100
CCCCOC(=O)N[C@H]1CSSC[C@@H](C(N)=O)NC(=O)[C@H](CCC)NC(=O)[C@H]([C@@H](C)CC)NC(=O)[C@@H]2C[C@@H](O)CN2C(=O)[C@@H]2C[C@H](F)CN2C(=O)[C@H](Cc2ccccc2)NC(=O)[C@H](Cc2ccc(O)c(O)c2)NC(=O)[C@H](CCCCNC(=O)CN2CCN(C(=O)CN3CCN(CC(=O)O)CCN(CC(=O)O)CCN(CC(=O)O)CC3)CC2)NC(=O)[C@H]([C@@H](C)O)NC1=O [UPAR-199, Butoc-[Cys-Thr-Lys(DOTA-PPAc)-Dopa-Phe-4Cfp-Hyp-Ile-Nva-Cys]-NH2] (Butoxycarbonyl-CTK(Acetyl(4-DOTA-piperazinyl))[Dopa]F[Pro(cis-4-F)][Hyp]I[Nva]C-NH2; disulfide 1-10)	≤ 10	< 1.58
CC(C)CCC(=O)N[C@H]1CSSC[C@@H](C(N)=O)NC(=O)[C@H](CC(C)C)NC(=O)[C@H](C(C)(C)C)NC(=O)[C@@H](C)NC(=O)[C@@H]2CCCN2C(=O)[C@H](Cc2ccccc2)NC(=O)[C@H](Cc2ccc(O)cc2)NC(=O)[C@H](CCC(N)=O)NC(=O)[C@H](CCCNC(N)=O)NC1=O [UPAR-201, iHex-[Cys-Cit-Gln-Tyr-Phe-Pro-ala-Tle-Leu-Cys]-NH2] ({Pentanoyl(4-Me)}-C[Cit]QYFP[dA][Tle]LC-NH2; disulfide 1-10)	39.8 to 100	10 to 100
CCCCCC(=O)N[C@@H](CO)C(=O)N[C@@H](CC(C)C)C(=O)N[C@H]1CSSC[C@@H](C(N)=O)NC(=O)[C@H](CC(C)C)NC(=O)[C@H]([C@@H](C)CC)NC(=O)[C@H](C)NC(=O)[C@@H]2CCCN2C(=O)[C@H](Cc2ccccc2)NC(=O)[C@H](Cc2ccccc2)NC(=O)[C@H](CCC(N)=O)NC(=O)[C@H](CC(=O)O)NC1=O [UPAR-202, Hex-Ser-Leu-[Cys-Asp-Gln-Phe-Phe-Pro-Ala-Ile-Leu-Cys]-NH2] (Hexanoyl-SLCDQFFPAILC-NH2; disulfide 3-12)	≤ 10	< 1.58
CCCCC(=O)N[C@H]1CSSC[C@@H](C(N)=O)NC(=O)[C@H](CCC)NC(=O)[C@H]([C@@H](C)CC)NC(=O)[C@@H]2C[C@@H](O)CN2C(=O)[C@@H]2CCCN2C(=O)[C@H](c2ccccc2)NC(=O)[C@H](Cc2ccc(O)cc2)NC(=O)[C@H](CCC(N)=O)NC(=O)[C@H](CCCNC(=N)N)NC1=O [UPAR-203, Pent-[Cys-Arg-Gln-Tyr-Phg-Pro-Hyp-Ile-Nva-Cys]-NH2] (Pentanoyl-CRQY[Phg]P[Hyp]I[Nva]C-NH2; disulfide 1-10)	≥ 126	10 to 100
CCCCC(=O)N[C@H]1CSSC[C@@H](C(N)=O)NC(=O)[C@H](CCC)NC(=O)[C@H](Cc2ccc(Cl)cc2)NC(=O)[C@@H]2C[C@@H](O)CN2C(=O)[C@@H]2CCCN2C(=O)[C@H](Cc2ccccc2)NC(=O)[C@H](Cc2ccc(O)cc2)NC(=O)[C@H](CCC(N)=O)NC(=O)[C@H](CCCNC(=N)N)NC1=O [UPAR-204, Pent-[Cys-Arg-Gln-Tyr-Phe-Pro-Hyp-Pcf-Nva-Cys]-NH2] (Pentanoyl-CRQYFP[Hyp][Phe(4-Cl)][Nva]C-NH2; disulfide 1-10)	≤ 10	< 1.58
CCCCC(=O)N[C@@H](C)C(=O)N[C@@H](CCCNC(N)=O)C(=O)N[C@@H](CCC(N)=O)C(=O)N[C@@H](Cc1ccc(O)cc1)C(=O)N[C@@H](Cc1ccccc1)C(=O)N1CCC[C@H]1C(=O)N1C[C@H](O)C[C@H]1C(=O)N[C@H](C(=O)N[C@@H](CCC)C(=O)N[C@@H](CSC)C(N)=O)[C@@H](C)CC [UPAR-205, Pent-Ala-Cit-Gln-Tyr-Phe-Pro-Hyp-Ile-Nva-Smc-NH2] (Pentanoyl-A[Cit]QYFP[Hyp]I[Nva]C(Me)-NH2)	≥ 126	> 100
CCCCC(=O)N[C@H]1CSSC[C@@H](C(=O)NCC(N)=O)NC(=O)[C@H](CCC)NC(=O)[C@H]([C@@H](C)CC)NC(=O)[C@@H]2C[C@@H](O)CN2C(=O)[C@@H]2CCCN2C(=O)[C@H](Cc2ccccc2)NC(=O)[C@H](Cc2ccc(O)cc2)NC(=O)[C@H](CCC(N)=O)NC(=O)[C@H](CCCNC(N)=O)NC1=O [UPAR-206, Pent-[Cys-Cit-Gln-Tyr-Phe-Pro-Hyp-Ile-Nva-Cys]-Gly-NH2] (Pentanoyl-C[Cit]QYFP[Hyp]I[Nva]CG-NH2; disulfide 1-10)	12.6 to 31.6	1.58 to 10
CCCCC(=O)N[C@H]1CSSC[C@@H](C(N)=O)NC(=O)[C@H](CCC)NC(=O)[C@H]([C@@H](C)CC)NC(=O)[C@@H]2C[C@@H](F)CN2C(=O)[C@@H]2CCCN2C(=O)[C@H](Cc2cccnc2)NC(=O)[C@H](Cc2ccc(O)cc2)NC(=O)[C@H](CCCCNC(=O)CN2CCN(CC(=O)O)CCN(CC(=O)O)CCN(CC(=O)O)CC2)NC(=O)[C@H](CCCNC(N)=O)NC1=O [UPAR-207, Pent-[Cys-Cit-Lys(DOTA)-Tyr-Mpa-Pro-4Tfp-Ile-Nva-Cys]-NH2] (Pentanoyl-C[Cit]K(DOTA)Y[3Pal]P[Pro(trans-4-F)]I[Nva]C-NH2; disulfide 1-10)	≤ 10	1.58 to 10
CC[C@H](C)[C@@H]1NC(=O)[C@@H](C)NC(=O)[C@@H]2CCCN2C(=O)[C@H](Cc2ccccc2)NC(=O)[C@H](Cc2ccc(O)cc2)NC(=O)[C@H](CCC(N)=O)NC(=O)[C@H](CCCNC(N)=O)NC(=O)[C@@H](NC(=O)C2CCCC2)CSSC[C@@H](C(N)=O)NC(=O)[C@H](CC(C)C)NC1=O [UPAR-208, Cp-[Cys-Cit-Gln-Tyr-Phe-Pro-ala-Ile-Leu-Cys]-NH2] (Cyclopentanecarbonyl-C[Cit]QYFP[dA]ILC-NH2; disulfide 1-10)	≤ 10	< 1.58
CCCCC(=O)N[C@H]1CSSC[C@@H](C(N)=O)NC(=O)[C@H](CCC)NC(=O)[C@H]([C@@H](C)CC)NC(=O)[C@@H]2C[C@@H](O)CN2C(=O)[C@@H]2CCCN2C(=O)[C@H](Cc2ccccc2)NC(=O)[C@H](Cc2ccc(S(=O)(=O)O)cc2)NC(=O)[C@H](CCCCNC(=O)CN2CCN(CC(=O)O)CCN(CC(=O)O)CCN(CC(=O)O)CC2)NC(=O)[C@H](CCCNC(N)=O)NC1=O [UPAR-209, Pent-[Cys-Cit-Lys(DOTA)-Fso-Phe-Pro-Hyp-Ile-Nva-Cys]-NH2] (Pentanoyl-C[Cit]K(DOTA)[Phe(4-SO3H)]FP[Hyp]I[Nva]C-NH2; disulfide 1-10)	≤ 10	1.58 to 10
CCCNC(=O)N[C@H]1CSSC[C@@H](C(N)=O)NC(=O)[C@H](CCC)NC(=O)[C@H]([C@@H](C)CC)NC(=O)[C@@H]2C[C@@H](O)CN2C(=O)[C@@H]2CCCN2C(=O)[C@H](Cc2ccccc2)NC(=O)[C@H](Cc2ccc(O)cc2)NC(=O)[C@H](CCCCNC(=O)CN2CCN(CC(=O)O)CCN(CC(=O)O)CCN(CC(=O)O)CC2)NC(=O)[C@H](CCCNC(N)=O)NC1=O [UPAR-210, PrCAyl-[Cys-Cit-Lys(DOTA)-Tyr-Phe-Pro-Hyp-Ile-Nva-Cys]-NH2] ({NHPr-CO}-C[Cit]K(DOTA)YFP[Hyp]I[Nva]C-NH2; disulfide 1-10)	≤ 10	< 1.58
CCCCC(=O)N[C@H]1CSSC[C@@H](C(N)=O)NC(=O)[C@H](CCC)NC(=O)[C@H]([C@@H](C)CC)NC(=O)[C@@H]2C[C@@H](O)CN2C(=O)[C@@H](C)N(C)C(=O)[C@H](Cc2ccccc2)NC(=O)[C@H](Cc2ccc(O)cc2)NC(=O)[C@H](CCC(N)=O)NC(=O)[C@H](CCCNC(=N)N)NC1=O [UPAR-211, Pent-[Cys-Arg-Gln-Tyr-Phe-nma-Hyp-Ile-Nva-Cys]-NH2] (Pentanoyl-CRQYF[dNMeA][Hyp]I[Nva]C-NH2; disulfide 1-10)	≥ 126	> 100
CCCOCC(=O)N[C@H]1CSSC[C@@H](C(N)=O)NC(=O)[C@H](CC(C)C)NC(=O)[C@H]([C@@H](C)CC)NC(=O)[C@@H](C)NC(=O)[C@@H]2CCCN2C(=O)[C@H](Cc2ccccc2)NC(=O)[C@H](Cc2ccc(O)cc2)NC(=O)[C@H](CCC(N)=O)NC(=O)[C@H](CCCNC(N)=O)NC1=O [UPAR-212, PrOAc-[Cys-Cit-Gln-Tyr-Phe-Pro-ala-Ile-Leu-Cys]-NH2] (X7-C[Cit]QYFP[dA]ILC-NH2; disulfide 1-10)	12.6 to 31.6	10 to 100
CCCCC(=O)N[C@H]1CSSCC[C@@H](C(N)=O)NC(=O)[C@H](CCC)NC(=O)[C@H]([C@@H](C)CC)NC(=O)[C@@H]2C[C@@H](O)CN2C(=O)[C@@H]2CCCN2C(=O)[C@H](Cc2ccccc2)NC(=O)[C@H](Cc2ccc(O)cc2)NC(=O)[C@H](CCC(N)=O)NC(=O)[C@H](CCCNC(=N)N)NC1=O [UPAR-213, Pent-[Cys-Arg-Gln-Tyr-Phe-Pro-Hyp-Ile-Nva-Hcy]-NH2] (Pentanoyl-CRQYFP[Hyp]I[Nva][hCys]-NH2; disulfide 1-10)	≤ 10	1.58 to 10
